Results from patent US6447794B2, “Stomach-action molluscicides” (priority 1996, dated 2002).

Legend:
[1] = tested on: Deroceras reticulatum; conditions: on wet soil after 10 days; cited from earlier work
[2] = tested on: Helix apersa; experiment: preliminary trials, contact poison on a smooth glass surface; assay type: in vivo, Helix aspersa
Procedure: (§1) Subsequent trials compared the effective toxicity of methiocarb, metaldehyde bait pellets and ferric EDTA pellets and ferric EDTA bait powder to Helix aspersa and the effective toxicity of ferric EDTA to Deroceras reticulatum. Limited trials were carried out on Theba pisana (the white Italian snail), Cernuella virgata (the vineyard snail), Limax maximus and Cochlicella spp.

[3] = tested on: Deroceras reticulatum; experiment: as above; assay type: in vivo
Procedure: as §1

Row | Structure (SMILES) | toxicity relative to Iron(III) EDTA [1] | toxicity as a contact poison [2] | toxicity as a contact poison [3]
1 | CC(=O)/C=C(/C)[O-].CC(=O)/C=C(/C)[O-].CC(=O)/C=C(/C)[O-].[Fe+3] [Iron(III) 2,4-pentanedionate] | about twice to three times as toxic | – | –
2 | O=C([O-])CN(CCN(CC(=O)[O-])CC(=O)[O-])CC(=O)[O-].[Fe+3].[Na+] [ferric EDTA, Ferric sodium EDTA] | – | toxic | toxic
